Reference: US8669246B2, “Substituted amide compound” (Astellas Pharma Inc., priority 2009, dated 2014)
Blank lines part the entries; values can stand above or below the compound they belong to.

Experiments:
[1] = Estimation of concentration in plasma after oral administration in rats using ex vivo bioassay method; conditions: male, Wistar, rat, 2 hours after oral administration, estimated by ex vivo bioassay from standard curve
Description: Estimation of Concentration in Plasma (2 Hours after Oral Administration) after Administration of Compound of Formula (I) in Rats Using Ex Vivo Bioassay Method
The concentration in the plasma after administration of the compound of the formula (I) in rats was estimated according to a bioassay method. That is, test compounds were orally administered to male Wistar rats (Charles River, 6-week old, and fasted), and after a certain period of time, blood was collected from the ophthalmic basilar plexus to give plasma. The compound was extracted from the plasma, and the extracted compound was dissolved in a certain amount of DMSO. Further, for the standard curve, the plasma in which the compounds at various concentrations had been dissolved was prepared separately, and the same extraction procedure was conducted.
The inhibitory action on the LPA-stimulated increase in the intracellular calcium ion concentration in LPA1-expressing cells in the DMSO extract was measured, and the plasma concentration in the individual after administration was estimated from the standard curve.

human LPA1 = target: T1, human LPA1 (Homo sapiens, UniProt Q92633); assay: Antagonistic action on human LPA1: inhibition of LPA-stimulated increase in intracellular calcium ion concentration in human LPA1-CHO cells; assay type: cell-based; conditions: LPA 100 nM, Fluo-4/FLIPR calcium signal
T1 construct: expressed in transfected cells
Description: Antagonistic Action of Compound of Formula (I) on Human LPA1
The antagonistic action on a human LPA 1 was evaluated with an index of an inhibitory action on the LPA-stimulated increase in intracellular calcium ion concentration, using human LPA 1-CHO cells [cells in which human LPA1 receptors are stably expressed in CHO (dhfr gene-deficient) cell lines].
Establishment of human LPA1-CHO cells was performed based on the basic genetic engineering techniques.
The established cells were maintained by passage in a nucleic acid-free α-MEM medium (Invitrogen) containing 10% FBS, 1% penicillin/streptomycin (Invitrogen), and 100 nM methotrexate, and before experiment, the medium was replaced with a medium that had been reduced to 1% of the […] concentration, then seeded in 96-well plates to 1.5×10e^5 cells/100 μL/well, and incubated overnight.
On the day of experiment, a 0.5 μM Fluo-4 solution [a solution prepared by adding 20 mM HEPES (Sigma), […] probenecid (Nacalai Tesque), 0.05% BSA, 0.5 μM Fluo-4 AM (Dojindo Laboratories), and 0.1% Pluronic […] (Molecular Probe Co.) to a Hanks Balanced Solt Solution (Invitrogen)] was added to the cells, and Fluo-4 was loaded on the cells by incubating for 2 hours at room temperature.
After loading Fluo-4, the Fluo-4 solution was replaced with a reaction solution [a solution obtained by adding 20 mM HEPES, […] probenecid, and 0.05% BSA to a Hanks Balanced Solt Solution], and then measurement was performed using a device for measuring an intracellular calcium concentration (FLIPR tetra, Molecular Devices Inc.).
A reaction solution in which the compound of the formula (I) (with a final concentration of 0.1 nM to 10 μM) had been dissolved was added to each of the wells, the signals were measured over time for 4 minutes, then a reaction solution in which LPA (final concentration 100 nM) had been dissolved was added thereto, and the signals were measured over time for 2 minutes. The difference between the maximum and minimum response during one minute from addition of LPA was calculated. The inhibitory activity was calculated, with a response when LPA only (not including the compound) was added was taken as 0% inhibition, and a response when a reaction solution not including both of the compound and LPA was added was taken as 100% inhibition. Then the 50% inhibitory concentration was calculated as an IC50 value (nM).
Human LPA1-CHO cells used in the present test were the cells with the same sequence as described in the pamphlet of International Publication WO 99/19513 were used. Further, Ex represents Example No. as denoted below.

[2] = tested on: LPA-induced increase in urethral pressure; assay: Inhibitory action on LPA-induced increase in urethral pressure in rats under anesthesia; assay type: in vivo, rat (male Wistar); conditions: Rattus norvegicus, 5 min; 0.1 mg/kg intravenous, LPA (1-oleoyl) 3 mg/kg iv after 5 minutes, anesthetized rats, vs solvent; read-out: Inhibitory rate
Description: Inhibitory Action of Compound of Formula (I) on LPA-Induced Increase in Urethral Pressure in Rats Under Anesthesia (with Intravenous Administration at 0.1 mg/kg) Male Wistar rats (Charles River, 9- to 12-week old) were anesthetized with urethane (1.2 g/kg ip), and held in the supine position on an operating table kept at 37° C. The lower abdominal portion was midline-incised and the bladder was thus exposed. A small portion of the bladder apex was incised, a microchip pressure transducer (Millar) was inserted antegrade, and then placed in the urethra, and the urethral pressure was recorded continuously. In addition, a cannula for administration of a drug was placed into the femoral vein. After about 1 hour of stabilization, the compound of formula (I) (0.1 mg/kg) was administered intravenously. After 5 minutes, LPA (1-oleoyl) was administered intravenously at 3 mg/kg, and the changes in the urethral pressure were recorded. The inhibitory rates (%) of the compound of the formula (I) on the LPA-stimulated increase in the urethral pressure compared with those after administration of the solvent of the compound of the formula (I) were recorded.

T1 sequence (Q92633 whole entry): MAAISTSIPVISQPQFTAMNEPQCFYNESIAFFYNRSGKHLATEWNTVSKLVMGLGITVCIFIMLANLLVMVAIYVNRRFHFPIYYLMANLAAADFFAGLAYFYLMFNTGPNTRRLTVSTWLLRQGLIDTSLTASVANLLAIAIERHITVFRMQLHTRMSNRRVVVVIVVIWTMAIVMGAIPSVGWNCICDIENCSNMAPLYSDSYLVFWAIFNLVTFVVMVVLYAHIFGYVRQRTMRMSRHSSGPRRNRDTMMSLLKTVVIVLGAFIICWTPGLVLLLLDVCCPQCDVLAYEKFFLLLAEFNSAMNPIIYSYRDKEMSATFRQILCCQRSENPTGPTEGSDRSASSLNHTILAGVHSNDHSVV

Structure (SMILES): COC(=O)N(C)S(=O)(=O)NC(=O)c1csc(CN(CCCc2ccccc2)C(=O)c2cc(OC)c(C)c(OC)c2)n1 [Example 89]
concentration at 2 h [1]: 2400 nM | melting point: 135 to 137 °C | IC50 (human LPA1): 0.017 µM

Structure (SMILES): CCNS(=O)(=O)NC(=O)c1csc(CN(CCCc2ccccc2)C(=O)c2cc(OC)c(C)c(OC)c2)n1 [Example 71]
concentration at 2 h [1]: 2100 nM | melting point: 143 to 144 °C | IC50 (human LPA1): 0.016 µM | inhibition in vivo at 0.1 mg/kg [2]: 18%

Structure (SMILES): CCN(CCO)S(=O)(=O)NC(=O)c1csc(CN(CCCc2ccccc2)C(=O)c2cc(OC)c(C)c(OC)c2)n1 [Example 170]
concentration at 2 h [1]: 1800 nM | melting point: 127 to 129 °C | IC50 (human LPA1): 0.034 µM

Structure (SMILES): COc1cc(C(=O)N(CCCc2ccccc2)Cc2nc(C(=O)N(C)S(N)(=O)=O)cs2)cc(OC)c1C [Example 9, N-(aminosulfonyl)-2-{[(3,5-dimethoxy-4-methylbenzoyl)(3-phenylpropyl)amino]methyl}-N-methyl-1,3-thiazole-4-carboxamide]
concentration at 2 h [1]: 8300 nM | inhibition in vivo at 0.1 mg/kg [2]: 28%

Structure (SMILES): COc1cc(C(=O)N(CCCc2ccccc2)Cc2nc(C(=O)NS(=O)(=O)N(CCO)CCF)cs2)cc(OC)c1C [Example 22, 2-{[(3,5-dimethoxy-4-methylbenzoyl)(3-phenylpropyl)amino]methyl}-N-{[(2-fluoroethyl)(2-hydroxyethyl)amino]sulfonyl}-1,3-thiazole-4-carboxamide]
concentration at 2 h [1]: 1300 nM | IC50 (human LPA1): 0.024 µM

Structure (SMILES): COc1cc(OC)cc(C(=O)N(CCCc2ccccc2)Cc2nc(C(=O)NS(C)(=O)=O)c(Cl)s2)c1 [Example 145]
concentration at 2 h [1]: 5600 nM | melting point: 113 to 114 °C | IC50 (human LPA1): 0.023 µM | inhibition in vivo at 0.1 mg/kg [2]: 16%

Second part, led by results:

concentration at 2 h [1]: 2200 nM
Structure (SMILES): COc1cc(C(=O)N(CCCc2ccccc2)Cc2nc(C(=O)NS(=O)(=O)N(CCO)CCO)c(C)s2)cc(OC)c1C [Example 171]

concentration at 2 h [1]: 4500 nM | melting point: 120 to 121 °C | IC50 (human LPA1): 0.024 µM
Structure (SMILES): COc1ccc(C(O)C(=O)N(CCCc2ccccc2)Cc2nc(C(=O)NS(N)(=O)=O)c(C)s2)cc1 (centres unmarked) [Example 176]

concentration at 2 h [1]: 5200 nM | melting point: 162 to 164 °C | IC50 (human LPA1): 0.021 µM
Structure (SMILES): CCc1c(OC)cc(C(=O)N(CCCc2ccccc2)Cc2nc(C(=O)NS(=O)(=O)NC)c(C)s2)cc1OC [Example 153]
inhibition in vivo at 0.1 mg/kg [2]: 21%

concentration at 2 h [1]: 6700 nM
Structure (SMILES): COc1cc(C(=O)N(CCCc2ccccc2)Cc2nc(C(=O)NS(=O)(=O)N(C)CCF)c(C)s2)cc(OC)c1C [Example 100]

concentration at 2 h [1]: 1400 nM | IC50 (human LPA1): 0.025 µM
Structure (SMILES): CONS(=O)(=O)NC(=O)c1nc(CN(CCCc2ccccc2)C(=O)c2cc(OC)cc(OC)c2)sc1C [Example 134]

concentration at 2 h [1]: 2100 nM | IC50 (human LPA1): 0.015 µM
Structure (SMILES): CNS(=O)(=O)NC(=O)c1nc(CN(CCCc2ccccc2)C(=O)c2cc(OC)c(C3CC3)c(OC)c2)sc1C [Example 156]

concentration at 2 h [1]: 1800 nM | IC50 (human LPA1): 0.029 µM
Structure (SMILES): COc1ccc(C2(C(=O)N(CCCc3ccccc3)Cc3nc(C(=O)NS(=O)(=O)N(C)C)c(C)s3)CC2)cc1 [Example 56]

concentration at 2 h [1]: 6500 nM | IC50 (human LPA1): 0.014 µM
Structure (SMILES): COc1ccc(C(O)C(=O)N(CCCc2ccccc2)Cc2nc(C(=O)NS(=O)(=O)N(C)C)c(C)s2)c(F)c1 (centres unmarked) [Example 27]

concentration at 2 h [1]: 8900 nM | melting point: 132 to 135 °C | IC50 (human LPA1): 0.02 µM
Structure (SMILES): COc1ccc(CC(=O)N(CCCc2ccccc2)Cc2nc(C(=O)NS(=O)(=O)N(C)C)c(C)s2)c(OC)c1 [Example 126]
